Assay results from publication PMC5908784, “Extracellular loops 2 and 3 of the calcitonin receptor selectively modify agonist binding and efficacy” (Biochemical Pharmacology, 2018).
Substitutions are numbered along the chain they refer to. Where a SMILES comes first, the peptide text is derived from it. Bridges are numbered along the chain shown (N, C = ends).

What was measured:
Assay in all cases: IP1 accumulation
Format in all cases: cell-based
Settings in all cases: mean ± S.E.M.; for Emax: IP1 maximal response, SEM
[1] = molecular target: T1, hCTR Y299A (Homo sapiens, UniProt P30988, Y299A)
T1 construct: c-Myc (N); expressed in transfected cells
T1 sequence (P30988 25-474 Y299A): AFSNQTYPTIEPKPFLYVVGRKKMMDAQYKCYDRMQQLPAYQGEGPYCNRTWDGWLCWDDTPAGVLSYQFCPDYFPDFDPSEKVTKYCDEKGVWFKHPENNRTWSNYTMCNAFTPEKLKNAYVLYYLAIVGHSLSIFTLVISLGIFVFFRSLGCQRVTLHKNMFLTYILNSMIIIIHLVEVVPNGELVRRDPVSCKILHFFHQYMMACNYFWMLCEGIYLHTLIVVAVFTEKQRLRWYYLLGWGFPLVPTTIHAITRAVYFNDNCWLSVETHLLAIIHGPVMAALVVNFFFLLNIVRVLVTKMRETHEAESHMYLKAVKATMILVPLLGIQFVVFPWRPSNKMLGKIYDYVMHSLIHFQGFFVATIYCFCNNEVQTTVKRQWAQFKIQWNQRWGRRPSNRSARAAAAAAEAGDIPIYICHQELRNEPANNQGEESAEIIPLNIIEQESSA
How it was run: (§1)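 Cells bearing the mutant calcitonin receptor were plated overnight, then stimulated with increasing ligand concentrations for 60 min in the presence of LiCl. Endogenous IP1 was read by HTRF after lysis.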

[2] = molecular target: T2, hCTR T280A (Homo sapiens, UniProt P30988, T280A)
T2 construct: expressed in transfected cells
T2 sequence (P30988 25-474 T280A): T1 sequence (P30988 25-474 Y299A) with T256A, A275Y
How it was run: as §1

[3] = molecular target: T3, hCTR M367A (Homo sapiens, UniProt P30988, M367A)
T3 construct: c-Myc (N); expressed in transfected cells
T3 sequence (P30988 25-474 M367A): T1 sequence (P30988 25-474 Y299A) with A275Y, M343A
How it was run: as §1

[4] = molecular target: T4, hCTR I279A (Homo sapiens, UniProt P30988, I279A)
T4 construct: expressed in transfected cells
T4 sequence (P30988 25-474 I279A): T1 sequence (P30988 25-474 Y299A) with I255A, A275Y
How it was run: as §1

[5] = molecular target: T5, hCTR D373A (Homo sapiens, UniProt P30988, D373A)
T5 construct: c-Myc (N); expressed in transfected cells
T5 sequence (P30988 25-474 D373A): T1 sequence (P30988 25-474 Y299A) with A275Y, D349A
How it was run: as §1

[6] = IP1, CV1-FlpIn cells, 60 min, LiCl

Row | EC50 [1, 6] | EC50 [2, 6] | EC50 [3, 6] | EC50 [4, 6] | EC50 [5, 6] | Compound | Emax [1] | Emax [2] | Emax [3] | Emax [4] | Emax [5]
1 | 0.417 nM | 2.45 nM | 5.13 nM | 6.61 nM | 14.8 nM | CSCC[C@H](NC(=O)CNC(=O)[C@H](CO)NC(=O)[C@H](Cc1ccccc1)NC(=O)[C@H](CCCNC(=N)N)NC(=O)[C@H](Cc1c[nH]cn1)NC(=O)[C@H](Cc1ccccc1)NC(=O)[C@H](CC(N)=O)NC(=O)[C@H](CC(N)=O)NC(=O)[C@H](CC(C)C)NC(=O)[C@H](CC(N)=O)NC(=O)[C@H](CCCNC(=N)N)NC(=O)[C@H](Cc1c[nH]c2ccccc12)NC(=O)[C@H](Cc1ccc(O)cc1)NC(=O)[C@H](C)NC(=O)[C@H](CO)NC(=O)[C@H](CC(C)C)NC(=O)[C@@H](NC(=O)[C@@H]1CSSC[C@H](N)C(=O)N[C@@H](CO)C(=O)N[C@@H](CC(N)=O)C(=O)N[C@@H](CC(C)C)C(=O)N[C@@H](CO)C(=O)N[C@@H]([C@@H](C)O)C(=O)N1)C(C)C)C(=O)NCC(=O)N[C@@H](Cc1ccccc1)C(=O)NCC(=O)N1CCC[C@H]1C(=O)N[C@@H](CCC(=O)O)C(=O)N[C@H](C(=O)N1CCC[C@H]1C(N)=O)[C@@H](C)O [pCT] (H-CSNLSTCVLSAYWRNLNNFHRFSGMGFGPETP-NH2; disulfide 1-7) | 52 ± 3% | 100 ± 6% | 101 ± 8% | 116 ± 10% | 46 ± 3%
2 |  |  |  |  |  | CC(C)C[C@H](NC(=O)[C@H](CCCCN)NC(=O)CNC(=O)[C@H](CC(C)C)NC(=O)[C@@H](NC(=O)[C@@H]1CSSC[C@H](N)C(=O)N[C@@H](CO)C(=O)N[C@@H](CC(N)=O)C(=O)N[C@@H](CC(C)C)C(=O)N[C@@H](CO)C(=O)N[C@@H]([C@@H](C)O)C(=O)N1)C(C)C)C(=O)N[C@@H](CO)C(=O)N[C@@H](CCC(N)=O)C(=O)N[C@@H](CCC(=O)O)C(=O)N[C@@H](CC(C)C)C(=O)N[C@@H](Cc1c[nH]cn1)C(=O)N[C@@H](CCCCN)C(=O)N[C@@H](CC(C)C)C(=O)N[C@@H](CCC(N)=O)C(=O)N[C@H](C(=O)N[C@@H](Cc1ccc(O)cc1)C(=O)N1CCC[C@H]1C(=O)N[C@@H](CCCNC(=N)N)C(=O)N[C@H](C(=O)N[C@@H](CC(N)=O)C(=O)N[C@H](C(=O)NCC(=O)N[C@@H](CO)C(=O)NCC(=O)N[C@H](C(=O)N1CCC[C@H]1C(N)=O)[C@@H](C)O)[C@@H](C)O)[C@@H](C)O)[C@@H](C)O [sCT] | 54 ± 5% | 119 ± 5% | 123 ± 6% | 97 ± 7% | 78 ± 6%
3 |  |  |  |  |  | CC[C@H](C)[C@H](NC(=O)[C@H](C)NC(=O)[C@@H](NC(=O)[C@H](CCC(N)=O)NC(=O)[C@@H]1CCCN1C(=O)[C@H](Cc1ccccc1)NC(=O)[C@@H](NC(=O)[C@H](Cc1c[nH]cn1)NC(=O)[C@H](Cc1ccccc1)NC(=O)[C@H](CCCCN)NC(=O)[C@H](CC(N)=O)NC(=O)[C@H](Cc1ccccc1)NC(=O)[C@H](CC(=O)O)NC(=O)[C@H](CCC(N)=O)NC(=O)[C@@H](NC(=O)[C@H](Cc1ccc(O)cc1)NC(=O)[C@@H](NC(=O)CNC(=O)[C@H](CC(C)C)NC(=O)[C@H](CCSC)NC(=O)[C@@H]1CSSC[C@H](N)C(=O)NCC(=O)N[C@@H](CC(N)=O)C(=O)N[C@@H](CC(C)C)C(=O)N[C@@H](CO)C(=O)N[C@@H]([C@@H](C)O)C(=O)N1)[C@@H](C)O)[C@@H](C)O)[C@@H](C)O)[C@@H](C)O)C(=O)NCC(=O)N[C@H](C(=O)NCC(=O)N[C@@H](C)C(=O)N1CCC[C@H]1C(N)=O)C(C)C [hCT] | 34 ± 5% | 79 ± 6% | 149 ± 8% | 79 ± 7% | 102 ± 10%
